31 compounds from patent US20260001889A1, “COMPOSITIONS USEFUL FOR MODULATING SPLICING” (Skyhawk Therapeutics, Inc., priority 2022, published 2026) can be followed below.

The test system of test [1] is total ATXN3 protein. The test can be described thus: ATXN3 Total Protein Assay (Mesoscale Discovery, SK-N-MC cells). Conditions: incubation for 48 hours, MSD assay. In kind it is cell-based, Human. The method, then:
Example 35: ATXN3 Total Protein Assay
Human neuroblastoma SK-N-MC cells were seeded at 10,000 cells/well in 384 well plates one day prior to compound treatment. The concentrations of compounds were tested at appropriate doses ranging from 30 μM to 0.6 nM. After incubation for 48 hours, the cells were lysed with 25 μL of lysis buffer containing protease inhibitors, and total ATXN3 protein levels were assessed by Mesoscale Discovery (MSD) assay developed with one pair of anti-ATXN3 antibodies. The capture and detect antibodies were raised in mouse and rabbit respectively. Anti-rabbit MSD-ST antibody was used for secondary antibody.
ATXN3 recombinant protein was used for standards. The readouts were captured with 35 μL of MSD read buffer and multi-array 384-well high binding plates.

Test [2] deals with ATXN3 transcripts containing exon 4. The test can be described thus: ATXN3 Quantitative Splicing Assay (qPCR, E4E5 primers/probe). In kind it is cell-based. The settings on record: Homo sapiens, SK-N-MC cells, compounds for 24 h. The method, then:
Example 34: ATXN3 Quantitative Splicing Assay
Human neuroblastoma SK-N-MC cells were plated in 384-well plates at 20,000 cells/well. Twenty-four hours after plating, cells were treated with compounds for 24 h at appropriate concentrations ranging from 30 μM to 0.6 nM (0.300 DMSO). Treated cells were lysed in 15 μL of lysis buffer, and cDNA was synthesized using the Fast Advanced Cells-to-Ct kit. Two […] of each cDNA was used in qPCR reactions to confirm the exon 4 skipped transcripts of ATXN3. A second set of primers/probe E4E5 was used to detect the transcripts containing exon 4. The third set of primers/probe E8E9 was used to detect total gene level of ATXN3. The qPCR reactions were prepared in 384-well plates in 10 μL volume, using TaqMan™ Fast Advanced Master Mix with primers and probes shown in the table below. Reactions were run in a Quant Studio 6 qPCR instrument with default settings.
The primers and probes are listed below in Table 4.

Test [3] relates to ATXN3-HiBiT protein. As to the kind of experiment: ATXN3 Total Protein Assay (Kelly-ATXN3-HiBiT luminescence). Conditions: Kelly-ATXN3-HiBiT cells, 48 h after addition of compound. It is filed as cell-based. The procedure, abridged:
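Endogenous ATXN3-HiBiT protein in knock-in Kelly neuroblastoma cells measured by lytic HiBiT luminescence 48 h post-compound (added 24 h after seeding 2000 cells/well). Values are fold changes relative to DMSO, with viability from a parallel CellTiter-Glo plate.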
In general terms: HiBiT is a short tag that completes a luciferase, so light tracks the accessible tagged protein.

For orientation: IC50 means the concentration that inhibits the measured activity by half. High values mean a need for much substance, low ones inhibition by little substance. With `Cc1c(C[C@@H](N)CC(F)(F)F)oc2c(NCc3cccs3)cc(Cl)nc12` [Compound 30, 2-[(R)-2-amino-4,4,4-trifluorobutyl]-5-chloro-3-methyl-7-thenylamino-1-oxa-4-azaindene], the IC50 in test [1] and in test [2] was 501 to 5000 nM in each case.
On to `CC(N)Cc1cc2nc(Cl)cc(NCc3ccncc3)c2o1` (centres unmarked) [Compound 1, 2-(2-aminopropyl)-5-chloro-7-{[(4-pyridyl)methyl]amino}-1-oxa-4-azaindene], for which the 50% inhibitory concentration (IC50) in test [1] and in test [2] was 10000 to 40000 nM each time.
Turning to `N[C@H](Cc1oc2c(NCc3cccs3)cc(Cl)nc2c1Cl)CC1CC1` [Compound 28, 2-[(S)-2-amino-3-cyclopropylpropyl]-3,5-dichloro-7-thenylamino-1-oxa-4-azaindene], the half-maximal inhibitory concentration (IC50) in test [1] and in test [2] was 101 to 500 nM throughout.
Turning to `Cc1c(C[C@@H](N)[C@@H](C)F)oc2c(NCc3cccs3)cc(Cl)nc12` [Compound 42, 2-[(2R,3R)-2-amino-3-fluorobutyl]-5-chloro-3-methyl-7-thenylamino-1-oxa-4-azaindene], the IC50 in test [1] and in test [2] was 501 to 5000 nM each time.
Turning to `Cc1c(C[C@H](C)N)oc2c(NCc3nccs3)cc(Cl)nc12` [Compound 9, 2-[(S)-2-aminopropyl]-5-chloro-3-methyl-7-{[(1,3-thiazol-2-yl)methyl]amino}-1-oxa-4-azaindene], the IC50 in test [1] and in test [2] was 501 to 5000 nM each time.
On to `C[C@H](N)Cc1oc2c(NCc3cccs3)cc(Cl)nc2c1C1CC1` [Compound 19, 2-[(2S)-2-aminopropyl]-5-chloro-3-cyclopropyl-N-(thiophen-2-ylmethyl)furo[3,2-b]pyridin-7-amine], for which the IC50 in test [1] and in test [2] was 101 to 500 nM throughout.
With `N[C@H](Cc1oc2c(NCc3cccs3)cc(Cl)nc2c1Br)CC(F)(F)F` [Compound 24, 2-[(R)-2-amino-4,4,4-trifluorobutyl]-3-bromo-5-chloro-7-thenylamino-1-oxa-4-azaindene], the IC50 in test [1] and in test [2] was 101 to 500 nM each time.
Take `N[C@H](Cc1oc2c(NCc3ccco3)cc(Cl)nc2c1Cl)CC1CC1` [Compound 29, 2-[(S)-2-amino-3-cyclopropylpropyl]-3,5-dichloro-7-(furfurylamino)-1-oxa-4-azaindene]: the half-maximal inhibitory concentration (IC50) in test [1] and in test [2] was 101 to 500 nM in each case.
For `Cc1c(C[C@H](C)N)oc2c(NCc3ccc(F)s3)cc(Cl)nc12` [Compound 12, 2-[(S)-2-aminopropyl]-5-chloro-7-{[(5-fluoro-2-thienyl)methyl]amino}-3-methyl-1-oxa-4-azaindene], the IC50 in test [1] and in test [2] was 501 to 5000 nM in each case.
For the compound `Cc1c(C[C@H](C)N)oc2c(NCc3cccs3)cc(C#N)nc12` [Compound 15, 2-[(2S)-2-aminopropyl]-3-methyl-7-[(thiophen-2-ylmethyl)amino]furo[3,2-b]pyridine-5-carbonitrile], the IC50 in test [1] and in test [2] was 501 to 5000 nM throughout.
`C[C@H](N)Cc1oc2c(NCc3ccco3)cc(Cl)nc2c1Cl` [Compound 54, 2-[(S)-2-aminopropyl]-3,5-dichloro-7-(furfurylamino)-1-oxa-4-azaindene]: the figures for the half-inhibitory concentration (IC50) in test [1] and in test [2] were 0.01 to 100 nM and 101 to 500 nM, respectively.
For `CC(N)Cc1cc2nc(Cl)cc(NCc3ccccc3)c2o1` (centres unmarked) [Compound 2, 2-(2-aminopropyl)-7-benzylamino-5-chloro-1-oxa-4-azaindene], the IC50 in test [1] and in test [2] was 5000 to 10000 nM throughout.
On to `Cc1c(C[C@H](C)N)oc2c(NCc3ccco3)cc(Cl)nc12` [Compound 10, 2-[(S)-2-aminopropyl]-5-chloro-7-(furfurylamino)-3-methyl-1-oxa-4-azaindene], for which the IC50 in test [1] and in test [2] was 501 to 5000 nM throughout.
On to `Cc1c(C[C@H](C)N)oc2c(NCc3ccccc3)cc(Cl)nc12` [Compound 8, 2-[(S)-2-aminopropyl]-7-benzylamino-5-chloro-3-methyl-1-oxa-4-azaindene], for which the IC50 in test [1] and in test [2] was 501 to 5000 nM in each case.
As a reminder, the EC50 is the concentration that produces a half-maximal response. Read a low EC50 as an effect from little substance. On to `C#Cc1c(C[C@@H](N)CCOC(F)F)oc2c(NCc3cccs3)cc(Cl)nc12` [Compound 197, 2-[(S)-2-amino-4-difluoromethoxybutyl]-5-chloro-3-ethynyl-7-thenylamino-1-oxa-4-azaindene], for which, in test [3], the EC50 was 0.01 to 100 nM. Moreover, the IC50 in test [2] was in the range of 0.01 to 100 nM.
As for `N[C@@H](CF)Cc1oc2c(NCc3ccco3)cc(Cl)nc2c1Br` [Compound 39, 2-[(R)-2-amino-3-fluoropropyl]-3-bromo-5-chloro-7-(furfurylamino)-1-oxa-4-azaindene], the IC50 in test [1] and in test [2] was 0.01 to 100 nM each time.
Compound `C[C@H](N)Cc1oc2c(NCc3ccc(Cl)s3)cc(Cl)nc2c1Br` [Compound 353, 2-[(S)-2-aminopropyl]-3-bromo-5-chloro-7-{[(5-chloro-2-thienyl)methyl]amino}-1-oxa-4-azaindene] yielded an EC50 in test [3] of 501 to 5000 nM. Moreover, the concentration for half-maximal inhibition (IC50) in test [2] fell in the range of 501 to 5000 nM.
For `N[C@H](Cc1oc2c(NCc3cccs3)cc(Cl)nc2c1Br)CC1CC1` [Compound 55, 2-[(S)-2-amino-3-cyclopropylpropyl]-3-bromo-5-chloro-7-thenylamino-1-oxa-4-azaindene], the IC50 in test [1] and in test [2] was 0.01 to 100 nM each time.
Turning to `COC[C@H](N)Cc1oc2c(NCc3ccccc3)cc(Cl)nc2c1Br` [Compound 47, 2-[(R)-2-amino-3-methoxypropyl]-7-benzylamino-3-bromo-5-chloro-1-oxa-4-azaindene], the 50% inhibitory concentration (IC50) in test [1] and in test [2] was 101 to 500 nM throughout.
In test [3], `OCc1oc2c(NCc3cccs3)cc(Cl)nc2c1Br` [Compound 354, (3-bromo-5-chloro-7-thenylamino-1-oxa-4-aza-2-indenyl)methanol] registered an EC50 of 5000 to 10000 nM. Also, the 50% inhibitory concentration (IC50) in test [2] fell in the range of 5000 to 10000 nM.
With `C[C@H](N)Cc1oc2c(NCc3ccc(F)cc3F)cc(Cl)nc2c1Br` [Compound 350, 2-[(S)-2-aminopropyl]-3-bromo-5-chloro-7-{[(2,4-difluorophenyl)methyl]amino}-1-oxa-4-azaindene], in test [3], the concentration for a half-maximal effect (EC50) lay within 501 to 5000 nM. For the same compound, the IC50 in test [2] was in the range of 501 to 5000 nM.
`N[C@@H]1CC(F)(F)C[C@H]1c1oc2c(NCc3cccs3)cc(Cl)nc2c1Br` (single isomer, unassigned) [Compound 388] gave a half-maximal inhibitory concentration (IC50) in test [2] of 101 to 500 nM.
Compound `N[C@H]1COC[C@@H]1c1oc2c(NCc3cccs3)cc(Cl)nc2c1Br` [Compound 373, 2-[(3R,4R)-4-aminotetrahydro-3-furyl]-3-bromo-5-chloro-7-thenylamino-1-oxa-4-azaindene] showed an IC50 in test [2] of 101 to 500 nM.
In test [2], `C[C@H](N)Cc1oc2c(NCc3ccco3)cc(Cl)nc2c1-c1ncc(C(N)=O)o1` [Compound 365, 2-{2-[(2S)-2-aminopropyl]-5-chloro-7-[(furan-2-ylmethyl)amino]furo[3,2-b]pyridin-3-yl}-1,3-oxazole-5-carboxamide] came in with a concentration for half-maximal inhibition (IC50) of 10000 to 40000 nM.
In turn, `COCc1oc2c(NCc3cccs3)cc(Cl)nc2c1Br` [Compound 360, 3-bromo-5-chloro-2-(methoxymethyl)-N-(thiophen-2-ylmethyl)furo[3,2-b]pyridin-7-amine] returned a half-inhibitory concentration (IC50) in test [2] of 5000 to 10000 nM.
Compound `C[C@H](N)C(F)(F)c1oc2c(NCc3cccs3)cc(Cl)nc2c1Br` [Compound 187, 2-[(S)-2-amino-1,1-difluoropropyl]-3-bromo-5-chloro-7-thenylamino-1-oxa-4-azaindene] showed an EC50 in test [3] of 0.01 to 100 nM. Besides, the half-inhibitory concentration (IC50) in test [2] lay within 0.01 to 100 nM.
In the case of `N[C@@H]1CCCC[C@H]1c1oc2c(NCc3cccs3)cc(Cl)nc2c1Br` [Compound 176, 2-[(1R,2R)-2-aminocyclohexyl]-3-bromo-5-chloro-7-thenylamino-1-oxa-4-azaindene], the 50% inhibitory concentration (IC50) in test [2] was 501 to 5000 nM.
Compound `COc1cccc(CNc2cc(Cl)nc3c(Br)c(C[C@H](C)N)oc23)c1F` [Compound 359, 2-[(S)-2-aminopropyl]-3-bromo-5-chloro-7-{[(2-fluoro-3-methoxyphenyl)methyl]amino}-1-oxa-4-azaindene] yielded an IC50 in test [2] of 10000 to 40000 nM.
In test [2], `COc1cc(CNc2cc(Cl)nc3c(Br)c(C[C@H](C)N)oc23)ccn1` [Compound 361, 2-[(S)-2-aminopropyl]-3-bromo-5-chloro-7-{[(2-methoxy-4-pyridyl)methyl]amino}-1-oxa-4-azaindene] showed an IC50 of 10000 to 40000 nM.
Turning to `C[C@H](N)Cc1oc2c(NCc3ccco3)cc(Cl)nc2c1C(=O)N(C)C` [Compound 357, 2-[(2S)-2-aminopropyl]-5-chloro-7-[(furan-2-ylmethyl)amino]-N,N-dimethylfuro[3,2-b]pyridine-3-carboxamide], the IC50 in test [2] lay within 10000 to 40000 nM.
`C#Cc1c([C@H]2CCCC[C@@H]2N)oc2c(NCc3cccs3)cc(Cl)nc12` [Compound 385, 2-[(1S,2S)-2-aminocyclohexyl]-5-chloro-3-ethynyl-7-thenylamino-1-oxa-4-azaindene]: in test [2], the IC50 was 0.01 to 100 nM.
